Experimental data from patent publication US11739098B2 (BRISTOL-MYERS SQUIBB COMPANY, priority 2017, dated 2023).

Key:
Type in all cases: cell-based
human TLR7 = molecular target: T1, human TLR7 (Homo sapiens, UniProt Q9NYK1); assay: TLR7 inhibition reporter assay (HEK-Blue cells, SEAP reporter, gardiquimod stimulation); details: HEK-Blue cells overexpressing human TLR7, SEAP reporter, gardiquimod 7.5 μM
T1 construct: host or cells: HEK-Blue cells (HEK293-derived reporter line)
T1 sequence (Q9NYK1 27-1049): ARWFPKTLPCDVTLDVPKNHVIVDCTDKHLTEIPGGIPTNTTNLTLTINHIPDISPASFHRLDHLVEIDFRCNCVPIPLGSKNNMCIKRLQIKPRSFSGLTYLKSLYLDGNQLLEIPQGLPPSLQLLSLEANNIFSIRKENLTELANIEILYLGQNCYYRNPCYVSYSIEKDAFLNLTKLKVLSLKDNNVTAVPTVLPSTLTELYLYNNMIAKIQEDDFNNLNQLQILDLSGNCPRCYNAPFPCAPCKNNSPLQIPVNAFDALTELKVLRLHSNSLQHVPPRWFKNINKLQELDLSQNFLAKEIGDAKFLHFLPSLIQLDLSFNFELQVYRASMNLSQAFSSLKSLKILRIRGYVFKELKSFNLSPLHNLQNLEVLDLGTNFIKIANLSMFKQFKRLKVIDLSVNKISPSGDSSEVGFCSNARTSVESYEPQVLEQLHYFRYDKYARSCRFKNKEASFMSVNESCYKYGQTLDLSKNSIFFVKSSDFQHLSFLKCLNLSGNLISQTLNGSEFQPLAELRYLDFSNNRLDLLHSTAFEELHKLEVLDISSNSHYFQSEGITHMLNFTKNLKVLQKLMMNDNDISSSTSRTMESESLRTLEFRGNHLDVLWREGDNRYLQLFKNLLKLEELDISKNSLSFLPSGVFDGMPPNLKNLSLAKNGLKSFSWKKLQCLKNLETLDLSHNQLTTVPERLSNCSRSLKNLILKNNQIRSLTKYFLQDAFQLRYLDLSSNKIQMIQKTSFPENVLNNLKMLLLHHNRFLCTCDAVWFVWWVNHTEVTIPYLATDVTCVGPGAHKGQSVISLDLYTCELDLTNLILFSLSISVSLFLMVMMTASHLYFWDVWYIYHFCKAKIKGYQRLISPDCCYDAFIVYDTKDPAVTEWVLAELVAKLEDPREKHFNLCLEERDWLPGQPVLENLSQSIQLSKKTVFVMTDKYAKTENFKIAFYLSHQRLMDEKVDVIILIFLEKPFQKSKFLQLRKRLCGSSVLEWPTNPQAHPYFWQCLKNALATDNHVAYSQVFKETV
Outline: (§1)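 HEK-Blue cells overexpressing the receptor, with NF-κB/AP-1-driven SEAP, were pre-treated 30 min at room temperature with compound (0.05 nM–50 μM), then stimulated with gardiquimod 7.5 μM (TLR7), R848 15.9 μM (TLR8) or ODN2006 5 nM (TLR9). SEAP was read after 22 h at 37 °C as percent inhibition.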

human TLR8 = molecular target: T2, human TLR8 (Homo sapiens, UniProt Q9NR97); assay: TLR8 inhibition reporter assay (HEK-Blue cells, SEAP reporter, R848 stimulation); details: HEK-Blue cells overexpressing human TLR8, SEAP reporter, R848 15.9 μM
T2 construct: host or cells: HEK-Blue cells (HEK293-derived reporter line)
T2 sequence (Q9NR97 27-1041): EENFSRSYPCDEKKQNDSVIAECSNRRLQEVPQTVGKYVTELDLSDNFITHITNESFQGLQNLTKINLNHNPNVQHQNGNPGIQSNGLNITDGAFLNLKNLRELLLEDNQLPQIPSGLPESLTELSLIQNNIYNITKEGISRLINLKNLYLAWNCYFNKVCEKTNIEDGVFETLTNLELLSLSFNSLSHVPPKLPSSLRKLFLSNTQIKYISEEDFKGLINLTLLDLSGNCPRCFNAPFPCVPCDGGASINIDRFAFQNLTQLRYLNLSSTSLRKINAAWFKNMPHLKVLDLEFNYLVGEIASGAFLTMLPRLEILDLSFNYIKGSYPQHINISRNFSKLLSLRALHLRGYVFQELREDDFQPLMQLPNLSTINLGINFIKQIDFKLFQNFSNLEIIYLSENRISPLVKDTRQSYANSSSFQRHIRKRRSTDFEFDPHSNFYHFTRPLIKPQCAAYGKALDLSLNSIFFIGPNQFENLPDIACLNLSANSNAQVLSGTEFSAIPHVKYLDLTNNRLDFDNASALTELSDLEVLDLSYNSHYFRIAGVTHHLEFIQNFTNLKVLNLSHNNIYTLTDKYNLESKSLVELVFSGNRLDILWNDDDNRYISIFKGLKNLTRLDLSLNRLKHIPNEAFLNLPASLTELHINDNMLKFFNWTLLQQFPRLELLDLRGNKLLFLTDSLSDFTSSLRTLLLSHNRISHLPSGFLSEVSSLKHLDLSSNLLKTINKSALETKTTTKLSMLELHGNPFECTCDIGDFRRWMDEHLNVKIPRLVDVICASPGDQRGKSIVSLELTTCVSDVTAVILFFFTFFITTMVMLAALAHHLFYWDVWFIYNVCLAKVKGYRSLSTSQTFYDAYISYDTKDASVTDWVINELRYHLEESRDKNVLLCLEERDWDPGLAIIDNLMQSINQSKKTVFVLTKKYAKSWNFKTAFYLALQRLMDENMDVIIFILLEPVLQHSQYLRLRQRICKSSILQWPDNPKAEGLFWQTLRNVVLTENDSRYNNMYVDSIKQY
Outline: as §1

human TLR9 = molecular target: T3, human TLR9 (Homo sapiens, UniProt Q9NR96); assay: TLR9 inhibition reporter assay (HEK-Blue cells, SEAP reporter, ODN2006 stimulation); details: HEK-Blue cells overexpressing human TLR9, SEAP reporter, ODN2006 5 nM
T3 construct: host or cells: HEK-Blue cells (HEK293-derived reporter line)
T3 sequence (Q9NR96 26-1032): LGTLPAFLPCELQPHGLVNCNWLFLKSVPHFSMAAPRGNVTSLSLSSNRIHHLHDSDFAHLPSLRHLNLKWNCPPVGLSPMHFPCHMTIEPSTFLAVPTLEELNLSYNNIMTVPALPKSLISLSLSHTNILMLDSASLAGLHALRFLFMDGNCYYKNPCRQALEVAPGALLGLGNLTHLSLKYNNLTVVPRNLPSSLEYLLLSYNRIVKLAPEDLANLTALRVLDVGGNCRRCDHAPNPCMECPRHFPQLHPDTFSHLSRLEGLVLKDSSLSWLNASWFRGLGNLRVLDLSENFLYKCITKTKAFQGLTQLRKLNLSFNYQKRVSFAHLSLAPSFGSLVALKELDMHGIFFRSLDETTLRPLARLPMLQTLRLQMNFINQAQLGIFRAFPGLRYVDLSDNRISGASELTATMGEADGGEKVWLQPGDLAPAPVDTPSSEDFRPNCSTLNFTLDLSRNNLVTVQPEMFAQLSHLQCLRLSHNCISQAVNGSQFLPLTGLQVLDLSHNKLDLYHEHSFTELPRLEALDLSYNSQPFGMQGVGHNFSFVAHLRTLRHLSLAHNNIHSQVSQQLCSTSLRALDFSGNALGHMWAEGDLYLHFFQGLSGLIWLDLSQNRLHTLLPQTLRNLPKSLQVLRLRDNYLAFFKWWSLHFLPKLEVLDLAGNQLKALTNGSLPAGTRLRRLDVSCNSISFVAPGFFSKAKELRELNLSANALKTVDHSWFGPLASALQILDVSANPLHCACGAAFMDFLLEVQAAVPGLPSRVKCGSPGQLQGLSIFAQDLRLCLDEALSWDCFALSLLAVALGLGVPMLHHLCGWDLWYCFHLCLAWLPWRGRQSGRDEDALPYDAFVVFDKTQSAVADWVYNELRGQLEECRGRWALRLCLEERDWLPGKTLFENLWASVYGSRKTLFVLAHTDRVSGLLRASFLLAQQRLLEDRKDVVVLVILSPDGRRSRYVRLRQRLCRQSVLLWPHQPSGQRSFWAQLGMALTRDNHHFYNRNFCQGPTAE
Outline: as §1

Row | SMILES | IC50 (human TLR7) | IC50 (human TLR8) | IC50 (human TLR9)
1 | Cc1cc(-c2[nH]c3ccc(C4CCNCC4)cc3c2C(C)C)cc2ncnn12 [Example 154, 7-(3-isopropyl-5-(piperidin-4-yl)-1H-indol-2-yl)-5-methyl-[1,2,4]triazolo[1,5-a]pyridine] | < 100 nM | < 100 nM | 1000 to 50000 nM
2 | CC(C)c1c(-c2ccc(Cl)c3[nH]ncc23)[nH]c2ccc(C3CCNCC3)cc12 [Example 106, 7-chloro-4-(3-isopropyl-5-(piperidin-4-yl)-1H-indol-2-yl)-1H-indazole] | 100 to 1000 nM | 100 to 1000 nM | 1000 to 50000 nM
3 | CCc1c(-c2ncnc3[nH]ccc23)[nH]c2ccc(C3CCNCC3)cc12 [Example 206, 4-(3-ethyl-5-(piperidin-4-yl)-1H-indol-2-yl)-7H-pyrrolo[2,3-d] pyrimidine] | 100 to 1000 nM | < 100 nM | 1000 to 50000 nM
4 | CC(C)c1c(-c2ccc3nccn3c2)[nH]c2ccc(C3CCNCC3)cc12 [Example 188, 6-(3-isopropyl-5-(piperidin-4-yl)-1H-indol-2-yl)imidazo[1,2-a]pyridine] | < 100 nM | 100 to 1000 nM | 100 to 1000 nM
5 | CC(C)c1c(-c2ccc(C#N)c3ncccc23)[nH]c2ccc(C3CCN(CCS(C)(=O)=O)CC3)cc12 [Example 796, 5-(3-isopropyl-5-(1-(2-(methylsulfonyl)ethyl)piperidin-4-yl)-1H-indol-2-yl)quinoline-8-carbonitrile] | < 100 nM | < 100 nM | 1000 to 50000 nM
6 | CC(C)c1c(-c2ccnc3[nH]ncc23)[nH]c2ccc(C3CCN(C(=O)CN4CC[C@@H](O)C4)CC3)cc12 [Example 579, (R)-2-(3-hydroxypyrrolidin-1-yl)-1-(4-(3-isopropyl-2-(1H-pyrazolo[3,4-b]pyridin-4-yl)-1H-indol-5-yl)piperidin-1-yl)ethan-1-one] | < 100 nM | < 100 nM | 100 to 1000 nM
7 | CNC(=O)CN1CCC(c2ccc3[nH]c(-c4ccn5cnnc5c4)c(C(C)C)c3c2)CC1 [Example 306, 2-(4-(2-([1,2,4]triazolo[4,3-a]pyridin-7-yl)-3-isopropyl-1H-indol-5-yl)piperidin-1-yl)-N-methylacetamide] | 100 to 1000 nM | 100 to 1000 nM | 1000 to 50000 nM
8 | CC(C)c1c(-c2cnc3[nH]c(=O)oc3c2)[nH]c2ccc(C3CCNCC3)cc12 [Example 16, 6-(3-isopropyl-5-(piperidin-4-yl)-1H-indol-2-yl)oxazolo[4,5-b]pyridin-2(3H)-one] | 100 to 1000 nM | > 3130 nM | 1000 to 50000 nM
9 | CCOc1cc(-c2[nH]c3ccc(C4CCN(CC(=O)NC)CC4)cc3c2C(C)C)cc2ncnn12 [Example 351, 2-(4-(2-(5-ethoxy-[1,2,4]triazolo[1,5-a]pyridin-7-yl)-3-isopropyl-1H-indol-5-yl)piperidin-1-yl)-N-methylacetamide] | < 100 nM | < 100 nM | 1000 to 50000 nM
10 | Cc1c(-c2ncnc3[nH]cnc23)[nH]c2ccc(C3CCN(C4CCN(C(C)C)CC4)CC3)cc12 [Example 815, 6-(5-(1′-isopropyl-[1,4′-bipiperidin]-4-yl)-3-methyl-1H-indol-2-yl)-9H-purine] | 1000 to 50000 nM | < 100 nM | < 100 nM

Next, values leading:

Row | IC50 (human TLR7) | IC50 (human TLR8) | IC50 (human TLR9) | SMILES
11 | < 100 nM | 100 to 1000 nM | > 50000 nM | CC(C)c1c(-c2ccc3nccn3c2)[nH]c2ccc(C3CCN(C(=O)C4CC(=O)N(C)C4)CC3)cc12 (stereo not drawn) [Example 645, 4-(4-(2-(imidazo[1,2-a]pyridin-6-yl)-3-isopropyl-1H-indol-5-yl)piperidine-1-carbonyl)-1-methylpyrrolidin-2-one]
12 | 1000 to 50000 nM | 1000 to 50000 nM | 1000 to 50000 nM | CNc1c[nH]c2nccc(-c3[nH]c4ccc(C5CCNCC5)cc4c3C)c12 [Example 210, N-methyl-4-(3-methyl-5-(piperidin-4-yl)-1H-indol-2-yl)-1H-pyrrolo[2,3-b]pyridin-3-amine]
13 | 100 to 1000 nM | < 100 nM | 1000 to 50000 nM | CC(C)c1c(-c2ccnc3[nH]ncc23)[nH]c2ccc(C3CCN(Cc4cnc5ccccc5c4)CC3)cc12 [Example 895, 3-((4-(3-isopropyl-2-(1H-pyrazolo[3,4-b]pyridin-4-yl)-1H-indol-5-yl)piperidin-1-yl)methyl)quinoline]
14 | < 100 nM | < 100 nM | 100 to 1000 nM | CC(C)c1c(-c2cc(N)c3nccn3c2)[nH]c2ccc(C3CCNCC3)cc12 [Example 117, 6-(3-isopropyl-5-(piperidin-4-yl)-1H-indol-2-yl)imidazo[1,2-a]pyridin-8-amine]
15 | < 100 nM | < 100 nM | 1000 to 50000 nM | CNC(=O)CN1CCC(c2ccc3[nH]c(-c4cc(C(F)(F)F)c5nccn5c4)c(C(C)C)c3c2)CC1 [Example 373, 2-(4-(3-isopropyl-2-(8-(trifluoromethyl)imidazo[1,2-a]pyridin-6-yl)-1H-indol-5-yl)piperidin-1-yl)-N-methylacetamide]
